Measured values taken from patent publication US20100311714A1, “1H-IMIDAZO[4,5-c]QUINOLINONE COMPOUNDS” (priority 2009, published 2010).
pIC50: −log10 of the molar value. Like-named read-outs stand apart in the source and are kept apart here.

Assays:
PI3K alfa = target: T1, PI3K alfa (Homo sapiens, UniProt P42336); assay: PI3K alpha kinase assay (Kinase-Glo luminescence); format: biochemical
T1 construct: His tag (C); made in house; host or cells: baculovirus BV1075; Tn5 (Trichoplusia ni) or TiniPro insect cells
T1 sequence (P42336 with tags, fused parts or gaps limits assumed): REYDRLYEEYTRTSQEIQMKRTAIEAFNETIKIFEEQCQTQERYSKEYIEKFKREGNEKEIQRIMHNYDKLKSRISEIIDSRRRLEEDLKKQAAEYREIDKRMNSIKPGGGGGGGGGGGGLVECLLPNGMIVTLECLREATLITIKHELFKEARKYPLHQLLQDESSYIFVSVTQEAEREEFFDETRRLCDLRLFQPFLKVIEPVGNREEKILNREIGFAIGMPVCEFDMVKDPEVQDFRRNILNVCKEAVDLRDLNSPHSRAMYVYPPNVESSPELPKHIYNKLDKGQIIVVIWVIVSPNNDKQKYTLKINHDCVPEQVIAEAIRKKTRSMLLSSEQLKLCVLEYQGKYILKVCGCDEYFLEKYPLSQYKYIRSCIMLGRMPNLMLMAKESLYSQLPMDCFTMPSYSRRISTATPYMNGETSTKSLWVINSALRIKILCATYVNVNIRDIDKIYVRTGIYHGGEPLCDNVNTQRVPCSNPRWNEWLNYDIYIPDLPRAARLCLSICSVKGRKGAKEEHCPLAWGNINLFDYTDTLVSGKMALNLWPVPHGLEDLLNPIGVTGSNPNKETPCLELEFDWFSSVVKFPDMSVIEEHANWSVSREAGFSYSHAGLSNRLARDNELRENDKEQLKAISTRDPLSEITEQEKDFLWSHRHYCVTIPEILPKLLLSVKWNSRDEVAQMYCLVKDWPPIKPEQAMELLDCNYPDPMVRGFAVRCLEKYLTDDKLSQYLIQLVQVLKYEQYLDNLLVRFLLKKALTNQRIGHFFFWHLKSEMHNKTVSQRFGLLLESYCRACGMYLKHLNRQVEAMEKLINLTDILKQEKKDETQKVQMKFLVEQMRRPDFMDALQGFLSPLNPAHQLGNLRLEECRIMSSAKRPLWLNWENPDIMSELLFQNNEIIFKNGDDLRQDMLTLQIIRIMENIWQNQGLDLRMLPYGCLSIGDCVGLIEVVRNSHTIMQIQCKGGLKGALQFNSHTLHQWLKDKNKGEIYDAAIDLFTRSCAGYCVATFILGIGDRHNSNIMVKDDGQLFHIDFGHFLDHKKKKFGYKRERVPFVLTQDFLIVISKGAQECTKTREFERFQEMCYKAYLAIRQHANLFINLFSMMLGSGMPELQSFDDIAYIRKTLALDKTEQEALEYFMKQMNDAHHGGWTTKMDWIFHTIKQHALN
In short: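 IC50 values come from a four-parameter logistic fit of percent inhibition at eight concentrations, typically 10 to 0.003 μM. Recombinant PI3Kα at 10 nM turned over 1 μM ATP with 10 μg/mL PI for 60 min at room temperature, and residual ATP was measured by Kinase-Glo.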

PI3K delta = target: T2, PI3K delta (Homo sapiens, UniProt O00329); assay: PI3K delta kinase assay (Kinase-Glo luminescence); format: biochemical
T2 construct: for the full-length p110-d subunit are generated and fused by overlapping PCR; His tag (C); made in house; host or cells: baculovirus BV1060; Tn5 (Trichoplusia ni) or TiniPro insect cells
T2 sequence (O00329 with tags, fused parts or gaps limits assumed): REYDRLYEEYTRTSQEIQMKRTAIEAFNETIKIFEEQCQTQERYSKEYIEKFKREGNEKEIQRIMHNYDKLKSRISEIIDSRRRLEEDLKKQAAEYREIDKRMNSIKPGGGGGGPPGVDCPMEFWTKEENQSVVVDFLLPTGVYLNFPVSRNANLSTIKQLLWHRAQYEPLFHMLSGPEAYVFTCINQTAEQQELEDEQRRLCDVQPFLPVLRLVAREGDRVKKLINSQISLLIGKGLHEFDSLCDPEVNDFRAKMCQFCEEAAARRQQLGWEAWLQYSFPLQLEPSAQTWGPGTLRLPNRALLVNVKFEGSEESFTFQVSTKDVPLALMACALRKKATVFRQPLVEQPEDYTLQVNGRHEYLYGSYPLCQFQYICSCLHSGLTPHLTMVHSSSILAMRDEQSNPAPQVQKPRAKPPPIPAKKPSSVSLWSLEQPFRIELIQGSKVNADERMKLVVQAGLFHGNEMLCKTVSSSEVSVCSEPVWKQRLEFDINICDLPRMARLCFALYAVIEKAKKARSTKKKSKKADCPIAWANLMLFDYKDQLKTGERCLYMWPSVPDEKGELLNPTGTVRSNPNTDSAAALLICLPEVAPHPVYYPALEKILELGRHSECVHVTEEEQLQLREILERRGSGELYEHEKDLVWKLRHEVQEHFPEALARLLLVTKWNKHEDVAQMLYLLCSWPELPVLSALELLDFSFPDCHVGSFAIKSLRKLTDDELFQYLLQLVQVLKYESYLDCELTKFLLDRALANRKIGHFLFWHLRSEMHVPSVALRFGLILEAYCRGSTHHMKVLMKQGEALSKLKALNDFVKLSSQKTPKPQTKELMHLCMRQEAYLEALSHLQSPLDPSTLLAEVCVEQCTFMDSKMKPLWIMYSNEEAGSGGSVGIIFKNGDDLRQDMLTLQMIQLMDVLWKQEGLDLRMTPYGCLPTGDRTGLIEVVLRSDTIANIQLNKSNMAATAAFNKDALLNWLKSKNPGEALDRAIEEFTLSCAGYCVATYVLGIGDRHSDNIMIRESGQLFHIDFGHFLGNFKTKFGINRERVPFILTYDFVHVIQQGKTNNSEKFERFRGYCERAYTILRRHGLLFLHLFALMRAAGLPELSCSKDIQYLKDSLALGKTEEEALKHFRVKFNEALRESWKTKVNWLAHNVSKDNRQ
In short: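 IC50s derive from 8-point inhibition curves fitted to a 4-parameter logistic model. Reaction: 10 nM purified p110δ/p85 iSH2 fusion, 1 μM ATP, 10 μg/mL PI substrate, pH 7.5 Tris buffer with MgCl2, NaCl, CHAPS and DTT, run 60 min at room temperature; remaining ATP read by Kinase-Glo luminescence.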

Structure (SMILES) | pIC50 (PI3K alfa; read-out: EPK_PI3Kalfa/IC50) | pIC50 (PI3K delta; read-out: EPK_PI3Kdelta/IC50) | pIC50 (PI3K alfa; read-out: PI3Kalfa/IC50) | pIC50 (PI3K delta; read-out: PI3Kdelta/IC50)
COCCOc1ccc(-n2c(=O)n(C)c3cnc4ccc(-c5cnc(N)c(C(F)(F)F)c5)cc4c32)c(C)n1 [Example 13.2, 8-(6-Amino-5-trifluoromethyl-pyridin-3-yl)-1-[6-(2-methoxy-ethoxy)-2-methyl-pyridin-3-yl]-3-methyl-1,3-dihydro-imidazo[4,5-c]quinolin-2-one] | 7.44 | 7.85 | – | –
CCNc1cc(-c2ccc3ncc4c(c3c2)n(-c2ccc(C)nc2C)c(=O)n4C)cnc1C [Example 14.6, 1-(2,6-Dimethyl-pyridin-3-yl)-8-(5-ethylamino-6-methyl-pyridin-3-yl)-3-methyl-1,3-dihydro-imidazo[4,5-c]quinolin-2-one] | 7.72 | 7.70 | – | –
CNc1cc(-c2ccc3ncc4c(c3c2)n(-c2ccc(C(F)(F)F)nc2C)c(=O)n4C)cnc1CO [Example 33.2, 8-(6-Hydroxymethyl-5-methylamino-pyridin-3-yl)-3-methyl-1-(2-methyl-6-trifluoromethyl-pyridin-3-yl)-1,3-dihydro-imidazo[4,5-c]quinolin-2-one] | 7.82 | 8.00 | – | –
CNc1cc(-c2ccc3ncc4c(c3c2)n(-c2ccc(F)nc2C)c(=O)n4C)cnc1CO [Example 7.11, 1-(6-Fluoro-2-methyl-pyridin-3-yl)-8-(6-hydroxymethyl-5-methylamino-pyridin-3-yl)-3-methyl-1,3-dihydro-imidazo[4,5-c]quinolin-2-one] | 7.77 | 7.59 | – | –
CCNc1cc(-c2ccc3ncc4c(c3c2)n(-c2ccc(F)nc2C)c(=O)n4C)cnc1CO [Example 7.9, 8-(5-Ethylamino-6-hydroxymethyl-pyridin-3-yl)-1-(6-fluoro-2-methyl-pyridin-3-yl)-3-methyl-1,3-dihydro-imidazo[4,5-c]quinolin-2-one] | 7.70 | 7.44 | – | –
COc1nc(N2CCNCC2)ccc1-n1c(=O)n(C)c2cnc3ccc(-c4cnc(N(C)C)nc4)cc3c21 [Example 9.4, 8-(2-Dimethylamino-pyrimidin-5-yl)-1-(2-methoxy-6-piperazin-1-yl-pyridin-3-yl)-3-methyl-1,3-dihydro-imidazo[4,5-c]quinolin-2-one] | 7.82 | 7.77 | – | –
CCNc1cc(-c2ccc3ncc4c(c3c2)n(-c2cnc(F)cc2C)c(=O)n4C)cnc1C [Example 16.2, 8-(5-Ethylamino-6-methyl-pyridin-3-yl)-1-(6-fluoro-4-methyl-pyridin-3-yl)-3-methyl-1,3-dihydro-imidazo[4,5-c]quinolin-2-one] | 7.48 | 7.57 | – | –
Cc1nc(N2CC(F)(F)C2)ccc1-n1c(=O)n(C)c2cnc3ccc(-c4cncc(C(C)(C)O)c4)cc3c21 [Example 24.2, 1-[6-(3,3-Difluoro-azetidin-1-yl)-2-methyl-pyridin-3-yl]-8-[5-(1-hydroxy-1-methyl-ethyl)-pyridin-3-yl]-3-methyl-1,3-dihydro-imidazo[4,5-c]quinolin-2-one] | 8.00 | 7.74 | – | –
COc1ccc(-c2ccc3ncc4c(c3c2)n(-c2cccnc2OC)c(=O)n4C)cn1 [Example 1.1, 1-(2-Methoxy-pyridin-3-yl)-8-(6-methoxy-pyridin-3-yl)-3-methyl-1,3-dihydro-imidazo[4,5-c]quinolin-2-one] | – | – | 7.64 | 7.59
COCC(=O)Nc1ccc(-n2c(=O)n(C)c3cnc4ccc(-c5cncc(OC(C)C)c5)cc4c32)c(C)n1 [Example 20.5, N-{5-[8-(5-Isopropoxy-pyridin-3-yl)-3-methyl-2-oxo-2,3-dihydro-imidazo[4,5-c]quinolin-1-yl]-6-methyl-pyridin-2-yl}-2-methoxy-acetamide] | 7.40 | 6.85 | – | –
COc1ccc(-c2ccc3ncc4c(c3c2)n(-c2cccnc2)c(=O)n4C)cc1OC [Example 5.2, 8-(3,4-Dimethoxy-phenyl)-3-methyl-1-pyridin-3-yl-1,3-dihydro-imidazo[4,5-c]quinolin-2-one] | – | – | 7.54 | 7.14
CNc1ncc(-c2ccc3ncc4c(c3c2)n(-c2ccc(N(C)CCOC)nc2C)c(=O)n4C)cn1 [Example 15.2, 1-{6-[(2-Methoxy-ethyl)-methyl-amino]-2-methyl-pyridin-3-yl}-3-methyl-8-(2-methylamino-pyrimidin-5-yl)-1,3-dihydro-imidazo[4,5-c]quinolin-2-one] | 7.41 | 7.49 | – | –
Cc1nc(F)ccc1-n1c(=O)n(C)c2cnc3ccc(-c4cncc(N)c4)cc3c21 [Example 7.16, 8-(5-Amino-pyridin-3-yl)-1-(6-fluoro-2-methyl-pyridin-3-yl)-3-methyl-1,3-dihydro-imidazo[4,5-c]quinolin-2-one] | 7.00 | 7.25 | – | –
CNc1ccc(-c2ccc3ncc4c(c3c2)n(-c2ccc(OCCOC)nc2C)c(=O)n4C)cn1 [Example 13.3, 1-[6-(2-Methoxy-ethoxy)-2-methyl-pyridin-3-yl]-3-methyl-8-(6-methylamino-pyridin-3-yl)-1,3-dihydro-imidazo[4,5-c]quinolin-2-one] | 7.51 | 7.59 | – | –
CCNc1cc(-c2ccc3ncc4c(c3c2)n(-c2ccc(N3CC(F)(F)C3)nc2C)c(=O)n4C)cnc1CO [Example 24.3, 1-[6-(3,3-Difluoro-azetidin-1-yl)-2-methyl-pyridin-3-yl]-8-(5-ethylamino-6-hydroxymethyl-pyridin-3-yl)-3-methyl-1,3-dihydro-imidazo[4,5-c]quinolin-2-one] | 7.96 | 7.26 | – | –
Cc1ccc(-n2c(=O)n(C)c3cnc4ccc(-c5cnc(N)c(C(F)(F)F)c5)cc4c32)c(C)n1 [Example 14.5, 8-(6-Amino-5-trifluoromethyl-pyridin-3-yl)-1-(2,6-dimethyl-pyridin-3-yl)-3-methyl-1,3-dihydro-imidazo[4,5-c]quinolin-2-one] | 8.30 | 8.15 | – | –
Cc1nc(N2CCC(O)C2)ccc1-n1c(=O)n(C)c2cnc3ccc(-c4cncc(OC(C)C)c4)cc3c21 (stereo not shown) [Example 27.1, 1-[6-(3-Hydroxy-pyrrolidin-1-yl)-2-methyl-pyridin-3-yl]-8-(5-isopropoxy-pyridin-3-yl)-3-methyl-1,3-dihydro-imidazo[4,5-c]quinolin-2-one] | 7.68 | 8.05 | – | –
CCNc1cc(-c2ccc3ncc4c(c3c2)n(-c2ccc(N(C)CCOC)nc2C)c(=O)n4C)cnc1C [Example 15.6, 8-(5-Ethylamino-6-methyl-pyridin-3-yl)-1-{6-[(2-methoxy-ethyl)-methyl-amino]-2-methyl-pyridin-3-yl}-3-methyl-1,3-dihydro-imidazo[4,5-c]quinolin-2-one] | 7.92 | 8.05 | – | –
Cc1ccc(-n2c(=O)n(C)c3cnc4ccc(-c5cncc(NC(C)C)c5)cc4c32)c(C)n1 [Example 14.8, 1-(2,6-Dimethyl-pyridin-3-yl)-8-(5-isopropylamino-pyridin-3-yl)-3-methyl-1,3-dihydro-imidazo[4,5-c]quinolin-2-one] | 7.43 | 7.34 | – | –
CCOc1ccc(-c2ccc3ncc4c(c3c2)n(-c2ccc(C)nc2C)c(=O)n4C)cn1 [Example 14.2, 1-(2,6-Dimethyl-pyridin-3-yl)-8-(6-ethoxy-pyridin-3-yl)-3-methyl-1,3-dihydro-imidazo[4,5-c]quinolin-2-one] | 7.37 | 7.52 | – | –
